The values below come from paper PMC11022890 (Drug Metabolism and Disposition, 2021).

By IC50 is commonly meant the concentration that inhibits the measured activity by half. High values mean a need for much substance, low ones inhibition by little substance.

Each structure is given as a SMILES string.

Test [1] deals with T1, UGT1A6 (Homo sapiens, UniProt P19224).
T1 sequence (P19224 27-532): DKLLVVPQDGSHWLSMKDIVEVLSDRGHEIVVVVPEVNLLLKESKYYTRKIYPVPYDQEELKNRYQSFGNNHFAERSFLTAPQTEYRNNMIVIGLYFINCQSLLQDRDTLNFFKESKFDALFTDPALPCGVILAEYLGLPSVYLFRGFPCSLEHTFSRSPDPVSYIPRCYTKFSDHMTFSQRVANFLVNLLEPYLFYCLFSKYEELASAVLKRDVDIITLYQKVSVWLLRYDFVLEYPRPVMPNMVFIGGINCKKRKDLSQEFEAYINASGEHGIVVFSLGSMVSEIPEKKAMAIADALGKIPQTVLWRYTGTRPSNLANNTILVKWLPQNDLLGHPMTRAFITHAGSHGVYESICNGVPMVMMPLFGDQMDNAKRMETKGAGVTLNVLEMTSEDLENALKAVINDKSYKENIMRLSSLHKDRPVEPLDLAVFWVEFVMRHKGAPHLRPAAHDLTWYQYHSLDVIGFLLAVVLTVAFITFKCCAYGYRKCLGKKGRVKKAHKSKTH
As to the kind of experiment: Inhibition of serotonin glucuronidation in rUGT1A6 microsomes. Type of test: in vitro ADME. As to conditions: for inhibition vs control without cannabinoid: serotonin.

Test [2] has as its target T2, UGT1A9 (Homo sapiens, UniProt O60656).
T2 sequence (O60656 26-530): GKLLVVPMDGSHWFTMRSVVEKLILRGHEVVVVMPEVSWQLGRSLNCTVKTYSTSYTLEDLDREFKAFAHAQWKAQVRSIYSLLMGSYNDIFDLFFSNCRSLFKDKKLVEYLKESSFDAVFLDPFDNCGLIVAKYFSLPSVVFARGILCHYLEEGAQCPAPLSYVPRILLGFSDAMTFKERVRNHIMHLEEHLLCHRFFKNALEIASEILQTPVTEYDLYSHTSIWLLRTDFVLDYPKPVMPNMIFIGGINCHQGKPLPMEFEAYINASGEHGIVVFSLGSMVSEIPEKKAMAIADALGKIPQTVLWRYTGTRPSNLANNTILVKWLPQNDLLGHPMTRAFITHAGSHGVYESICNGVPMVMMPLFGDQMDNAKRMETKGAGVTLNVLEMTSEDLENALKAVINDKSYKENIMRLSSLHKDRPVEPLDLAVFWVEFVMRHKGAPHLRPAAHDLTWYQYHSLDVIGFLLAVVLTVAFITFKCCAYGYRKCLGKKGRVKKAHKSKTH
Kind of test: Inhibition of acetaminophen glucuronidation in rUGT1A9 microsomes. In kind it is in vitro ADME. The settings on record: IC50, probe substrate acetaminophen.

For test [3], the target named is T3, UGT1A1 (Homo sapiens, UniProt P22309).
T3 sequence (P22309 26-533): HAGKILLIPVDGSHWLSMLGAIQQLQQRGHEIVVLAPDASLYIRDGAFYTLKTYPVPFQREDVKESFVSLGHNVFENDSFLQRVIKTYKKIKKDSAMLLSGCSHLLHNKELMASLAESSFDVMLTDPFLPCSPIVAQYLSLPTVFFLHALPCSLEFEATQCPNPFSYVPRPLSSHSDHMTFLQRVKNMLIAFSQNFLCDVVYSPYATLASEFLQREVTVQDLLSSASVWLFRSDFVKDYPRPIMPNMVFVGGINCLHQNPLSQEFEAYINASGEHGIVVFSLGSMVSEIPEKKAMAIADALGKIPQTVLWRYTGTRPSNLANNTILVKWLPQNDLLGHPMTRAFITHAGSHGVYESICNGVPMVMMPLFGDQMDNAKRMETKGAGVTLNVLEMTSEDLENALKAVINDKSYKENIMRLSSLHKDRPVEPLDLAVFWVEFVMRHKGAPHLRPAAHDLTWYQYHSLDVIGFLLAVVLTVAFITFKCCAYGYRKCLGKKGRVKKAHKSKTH
As to the kind of experiment: Screening: inhibition of β-estradiol glucuronidation in rUGT1A1 microsomes. Type of test: in vitro ADME. As to conditions: 10 or 100 µM.

For test [4], the target named is T4, UGT1A4 (Homo sapiens, UniProt P22310).
T4 sequence (P22310 29-534): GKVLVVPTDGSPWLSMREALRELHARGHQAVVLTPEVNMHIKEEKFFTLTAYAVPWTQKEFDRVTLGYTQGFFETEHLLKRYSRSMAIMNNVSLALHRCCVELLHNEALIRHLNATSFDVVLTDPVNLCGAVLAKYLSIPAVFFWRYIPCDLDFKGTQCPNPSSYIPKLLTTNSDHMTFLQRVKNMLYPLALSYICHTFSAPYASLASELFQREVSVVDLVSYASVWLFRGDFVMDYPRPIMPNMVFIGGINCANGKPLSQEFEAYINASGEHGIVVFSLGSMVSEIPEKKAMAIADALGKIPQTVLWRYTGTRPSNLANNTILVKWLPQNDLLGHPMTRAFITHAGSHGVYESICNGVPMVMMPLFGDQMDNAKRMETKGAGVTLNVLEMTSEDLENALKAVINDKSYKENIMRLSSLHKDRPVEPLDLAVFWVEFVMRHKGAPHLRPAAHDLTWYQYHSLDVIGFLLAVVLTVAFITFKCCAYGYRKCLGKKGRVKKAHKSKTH
Kind of test: Screening: inhibition of trifluoperazine glucuronidation in rUGT1A4 microsomes. In kind it is in vitro ADME. The settings on record: 10 or 100 µM.

The target in test [5] is T5, UGT2B15 (Homo sapiens, UniProt P54855).
T5 sequence (P54855 24-530): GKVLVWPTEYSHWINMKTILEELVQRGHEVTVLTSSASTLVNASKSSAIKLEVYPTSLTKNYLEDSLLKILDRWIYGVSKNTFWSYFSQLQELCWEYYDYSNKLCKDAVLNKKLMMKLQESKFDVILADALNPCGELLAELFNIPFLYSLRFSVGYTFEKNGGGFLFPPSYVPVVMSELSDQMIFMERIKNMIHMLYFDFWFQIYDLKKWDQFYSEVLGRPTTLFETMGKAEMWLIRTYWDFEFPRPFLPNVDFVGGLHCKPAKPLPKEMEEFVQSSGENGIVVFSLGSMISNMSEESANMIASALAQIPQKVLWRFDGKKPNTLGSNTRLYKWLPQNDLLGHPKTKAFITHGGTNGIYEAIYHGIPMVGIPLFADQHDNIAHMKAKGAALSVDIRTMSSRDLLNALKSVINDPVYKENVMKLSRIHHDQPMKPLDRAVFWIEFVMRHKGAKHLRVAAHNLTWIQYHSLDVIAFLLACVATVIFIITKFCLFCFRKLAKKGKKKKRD
As to the kind of experiment: Screening: inhibition of oxazepam glucuronidation in rUGT2B15 microsomes. Type of test: in vitro ADME. The settings on record: 10 or 100 µM.

Test [6] addresses T6, UGT1A9 in human kidney microsomes (Homo sapiens, UniProt O60656).
T6 sequence (O60656 26-530): T2 sequence (O60656 26-530)
As to the kind of experiment: Inhibition of furosemide glucuronidation. As to conditions: HKM.

In test [7] the target is T6, UGT1A9 in human kidney microsomes. As to the kind of experiment: Inhibition of acetaminophen glucuronidation. The settings on record: HKM.
Setting [8] is: IC50, probe substrate furosemide.
[9] abbreviates: IC50,u (binding-corrected IC50), probe substrate furosemide.
The mark [10] stands for this setting: IC50, probe substrate acetaminophen.
Where [11] appears, read: IC50,u (binding-corrected IC50), probe substrate acetaminophen.

Consider `CCCCCc1cc(O)c2c(c1)OC(C)(C)c1ccc(C)cc1-2` [CBN, cannabinol], for which the “inhibition vs control without cannabinoid” value in test [1] (100 µM, screening in duplicate) turned out to be 43%. For the same compound, the IC50 worked out at 6.9 ± 0.54 µM in test [2]; 15 ± 0.77 µM in test [6] (setting [8]); 1.9 ± 0.092 µM in test [6] (setting [9]); 21 ± 3.4 µM in test [7] (setting [10]); 2.6 ± 0.41 µM in test [7] (setting [11]). Moreover, the “inhibition in screening (in words)” value in test [3], in test [4] and in test [5] was “no significant inhibition” in each case.
Consider `C=C(C)[C@@H]1CCC(C)=C[C@H]1c1c(O)cc(CCCCC)cc1O` [CBD, cannabidiol], for which the “inhibition vs control without cannabinoid” value is recorded as 25% in test [1] (10 µM, screening) and 54% in test [1] (100 µM, screening in duplicate). Moreover, the IC50 in test [1] (IC50,u (binding-corrected IC50), probe substrate serotonin) was 0.4 ± 0.1 µM; in test [2], 1.9 ± 0.29 µM; in test [6] (setting [8]), 3.6 ± 0.8 µM; in test [6] (setting [9]), 0.22 ± 0.049 µM; in test [7] (setting [10]) it was 3.8 ± 0.82 µM; in test [7] (setting [11]) it was 0.24 ± 0.05 µM. The “inhibition in screening (in words)” value in test [3], in test [4] and in test [5] was “no significant inhibition” each time.
